Source: patent US6589984B1, “Benzofurylpyrone derivatives” (Teijin Limited, priority 1998, dated 2003)
pIC50: −log10 of the molar value.

tested on: Human hepatic cancer cells HepG2; test: TG production inhibiting activity (14C-acetic acid incorporation into TG) in HepG2 cells; format: cell-based; settings: Homo sapiens, HepG2; group criterion, alternatives: IC50 at least 10 μM and less than 100 μM, or at least 5% and less than 30% inhibition at 1 μM, or at least 30% and less than 50% inhibition at 10 μM
Method in brief: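 HepG2 cells cultured 6 days in eRDF with 10% bovine serum, then in serum-free eRDF given compound (diluted from 20 mM DMSO stock) plus 14C-acetic acid for one day at 37 °C, 5% CO2. Lipids extracted with hexane/isopropanol 2:1 and separated by TLC; the TG spot was cut out and counted by liquid scintillation.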

| Compound | pIC50 |
| --- | --- |
| Cc1c(-c2cc3cc(OCc4ccccc4Br)ccc3o2)oc(=O)c(C)c1O [Example 81, 6-(5-(2-bromobenzyloxy)benzofuran-2-yl)-3,5-dimethyl-4-hydroxy-2H-pyran-2-one] | 4.00 to 5.00 |
| Cc1c(-c2cc3cc(OC4CCN(C(=O)OC(C)(C)C)CC4)ccc3o2)oc(=O)c(C)c1O [Example 222, 6-(5-(1-t-butoxycarbonylpiperidin-4-yloxy)benzofuran-2-yl)-3,5-dimethyl-4-hydroxy-2H-pyran-2-one] | 4.00 to 5.00 |
| Cc1c(-c2cc3cc(OCC4CCCC4)ccc3o2)oc(=O)c(C)c1O [Example 126, 6-(5-(cyclopentylmethoxy)benzofuran-2-yl)-3,5-dimethyl-4-hydroxy-2H-pyran-2-one] | 4.00 to 5.00 |
| Cc1c(-c2cc3cccc(OCc4ccccc4)c3o2)oc(=O)c(C)c1O [Example 286, 6-(7-benzyloxybenzofuran-2-yl)-3,5-dimethyl-4-hydroxy-2H-pyran-2-one] | 4.00 to 5.00 |
| Cc1c(O)cc(-c2cc3ccccc3o2)oc1=O [Example 32, 6-(benzofuran-2-yl)-4-hydroxy-3-methyl-2H -pyran-2-one] | 4.00 to 5.00 |
| Cc1c(-c2cc3cc(OCCN4CCOCC4)ccc3o2)oc(=O)c(C)c1O [Example 115, 3,5-dimethyl-4-hydroxy-6-(5-(2-(morpholin-4-yl)ethoxy)benzofuran-2-yl)-2H-pyran-2-one] | 4.00 to 5.00 |
| COCOc1ccc2cc(-c3oc(=O)c(C)c(OC(C)=O)c3C)oc2c1 [Example 292, 4-acetyloxy-3,5-dimethyl-6-(6-methoxymethoxybenzofuran-2-yl)-2H-pyran-2-one] | 4.00 to 5.00 |
| CC(=O)Oc1c(C)c(-c2cc3cc(C(=O)O)ccc3o2)oc(=O)c1C [Example 264, 4-acetyloxy-6-(5-carboxybenzofuran-2-yl)-3,5-dimethyl-2H-pyran-2-one] | 4.00 to 5.00 |
| Cc1c(-c2cc3c(OCc4ccccc4)cccc3o2)oc(=O)c(C)c1O [Example 258, 6-(4-benzyloxybenzofuran-2-yl)-3,5-dimethyl-4-hydroxy-2H-pyran-2-one] | 4.00 to 5.00 |
| CC=CCc1c(-c2cc3ccccc3o2)oc(=O)c(C)c1O [Example 68, 6-(benzofuran-2-yl)-5-(2-butenyl)-4-hydroxy-3-methyl-2H-pyran-2-one] | 4.00 to 5.00 |
| CC(=O)Oc1c(C)c(-c2cc3cc(OC(=O)c4ccccc4)ccc3o2)oc(=O)c1C [Example 296, 4-acetyloxy-6-(5-benzoyloxybenzofuran-2-yl)-3,5-dimethyl-2H-pyran-2-one] | 4.00 to 5.00 |
| Cc1c(-c2cc3cc(OCc4ccccc4Cl)ccc3o2)oc(=O)c(C)c1O [Example 240, 6-(5-(2-chlorobenzyloxy)benzofuran-2-yl)-3,5-dimethyl-4-hydroxy-2H-pyran-2-one] | 4.00 to 5.00 |
| Cc1c(-c2cc3cc(OC(CN(C)C)CN(C)C)ccc3o2)oc(=O)c(C)c1O [Example 107, 6-(5-(1,3-bis(dimethylamino)-2-propoxy)benzofuran-2-yl)-3,5-dimethyl-4-hydroxy-2H-pyran-2-one] | 4.00 to 5.00 |
| CC(=O)Oc1c(C)c(-c2cc3cc(C=O)ccc3o2)oc(=O)c1C [Example 8, 4-acetyloxy-3,5-dimethyl-6-(5-formylbenzofuran-2-yl)-2H-pyran-2-one] | 4.00 to 5.00 |

same assay, conditions: Homo sapiens, HepG2; group criterion, alternatives: IC50 less than 10 μM, or at least 30% inhibition at 1 μM, or at least 50% inhibition at 10 μM

| Compound | pIC50 |
| --- | --- |
| Cc1c(-c2cc3cc(OCc4cncc(O)c4)ccc3o2)oc(=O)c(C)c1O [Example 304, 3,5-dimethyl-4-hydroxy-6-(5-(5-hydroxy-3-pyridylmethoxy)benzofuran-2-yl)-2H-pyran-2-one] | > 5.00 |
| COc1ccc2cc(-c3oc(=O)c(C)c(O)c3C)oc2c1 [Example 26, 3,5-dimethyl-4-hydroxy-6-(6-methoxybenzofuran-2-yl)-2H-pyran-2-one] | > 5.00 |
| Cc1c(-c2cc3cc(N(Cc4ccccc4)Cc4ccccc4)ccc3o2)oc(=O)c(C)c1O [Example 49, 6-(5-(dibenzylamino)benzofuran-2-yl)-3,5-dimethyl-4-hydroxy-2H-pyran-2-one] | > 5.00 |
| CCc1c(-c2cc3ccccc3o2)oc(=O)c(C)c1O [Example 33, 6-(benzofuran-2-yl)-5-ethyl-4-hydroxy-3-methyl-2H-pyran-2-one] | > 5.00 |
| CC(=O)Oc1c(C)c(-c2cc3cc(OCc4ccccc4)ccc3o2)oc(=O)c1C [Example 270, 4-acetyloxy-6-(5-benzyloxybenzofuran-2-yl)-3,5-dimethyl-2H-pyran-2-one] | > 5.00 |
| Cc1c(-c2cc3cc(N(C)C(=O)OC(C)(C)C)ccc3o2)oc(=O)c(C)c1O [Example 255, 6-(5-(N-(t-butoxycarbonyl)-N-methylamino)benzofuran-2-yl)-3,5-dimethyl-4-hydroxy-2H-pyran-2-one] | > 5.00 |
| Cc1c(O)c(Cc2ccccc2)c(-c2cc3ccccc3o2)oc1=O [Example 36, 6-(benzofuran-2-yl)-5-benzyl-4-hydroxy-3-methyl-2H-pyran-2-one] | > 5.00 |
| Cc1c(-c2cc3cc(OCc4cccc(Cl)c4)ccc3o2)oc(=O)c(C)c1O [Example 242, 6-(5-(3-chlorobenzyloxy)benzofuran-2-yl)-3,5-dimethyl-4-hydroxy-2H-pyran-2-one] | > 5.00 |
| COc1cccc2cc(-c3oc(=O)c(C)c(O)c3C)oc12 [Example 13, 3,5-dimethyl-4-hydroxy-6-(7-methoxybenzofuran-2-yl)-2H-pyran-2-one] | > 5.00 |
| CC(=O)Oc1c(C)c(-c2cc3cc(OCc4sc(Cl)nc4Cl)ccc3o2)oc(=O)c1C [Example 244, 4-acetyloxy-6-(5-(2,4-dichloro-5-thiazolylmethoxy)benzofuran-2-yl)-3,5-dimethyl-2H-pyran-2-one] | > 5.00 |
| COc1cccc(COc2ccc3oc(-c4oc(=O)c(C)c(O)c4C)cc3c2)c1 [Example 236, 3,5-dimethyl-4-hydroxy-6-(5-(3-methoxybenzyloxy)benzofuran-2-yl)-2H-pyran-2-one] | > 5.00 |
| Cc1c(-c2cc3cc([N+](=O)[O-])ccc3o2)oc(=O)c(C)c1O [Example 45, 3,5-dimethyl-4-hydroxy-6-(5-nitrobenzofuran-2-yl)-2H-pyran-2-one] | > 5.00 |
| Cc1c(-c2cc3cc(OCc4cncs4)ccc3o2)oc(=O)c(C)c1O [Example 243, 3,5-dimethyl-4-hydroxy-6-(5-(5-thiazolylmethoxy)benzofuran-2-yl)-2H-pyran-2-one] | > 5.00 |
| CCCCCc1c(-c2cc3ccccc3o2)oc(=O)c(C)c1O [Example 11, 6-(benzofuran-2-yl)-4-hydroxy-3-methyl-5-n-pentyl-2H-pyran-2-one] | > 5.00 |
| Cc1c(-c2cc3cc(C(=O)N(C)c4ccncc4)ccc3o2)oc(=O)c(C)c1O [Example 309, 3,5-dimethyl-4-hydroxy-6-(5-(N-methyl-N-(4-pyridyl)carbamoyl)benzofuran-2-yl)-2H-pyran-2-one] | > 5.00 |
| Cc1c(-c2cc3cc(OCc4ccccc4)ccc3o2)oc(=O)c(C)c1OC(=O)c1cccnc1 [Example 55, 6-(5-benzyloxybenzofuran-2-yl)-3,5-dimethyl-4-nicotinoyloxy-2H-pyran-2-one] | > 5.00 |
| Cc1c(-c2cc3ccccc3o2)oc(=O)c(C)c1OC(=O)C(C)C [Example 39, 6-(benzofuran-2-yl)-3,5-dimethyl-4-isobutyryloxy-2H-pyran-2-one] | > 5.00 |
| CC(=O)Oc1c(C)c(-c2cc3cc(OS(=O)(=O)C(F)(F)F)ccc3o2)oc(=O)c1C [Example 257, 4-acetyloxy-3,5-dimethyl-6-(5-trifluoromethanesulfonyloxybenzofuran-2-yl)-2H-pyran-2-one] | > 5.00 |
